In ChEMBL document CHEMBL1126708, “Inhibitors of acyl-CoA:cholesterol acyltransferase (ACAT). 2. Modification of fatty acid anilide ACAT inhibitors: bioisosteric replacement of the amide bond” (J Med Chem, 1993):

Tests used:
O-acyltransferase = O-acyltransferase (Oryctolagus cuniculus, UniProt G1SFD9); assay: Acyl coenzyme A:cholesterol acyltransferase (ACAT), inhibition by incubation with [1-14C]oleolyl-CoA and intestinal microsomes isolated from intestinal mucosa of cholesterol-fed rabbits
Rattus norvegicus = assay: In vivo change in plasma total cholesterol in cholic acid (0.3%)-cholesterol (1.5%)-peanut oil(5.5%) fed rats dosed at 0.05% of diet.
[1] = Tested in vivo for plasma total cholesterol(TC) in cholic acid (0.3%)-cholesterol (1.5%)-peanut oil (5.5%) fed rats; type: functional
[2] = target: T1, Acyl-CoA:cholesterol acyltransferase (Oryctolagus cuniculus) (UniProt Q95214); assay: Tested in vitro against intestinal Acyl coenzyme A:cholesterol acyltransferase by incubation with [1-14C]oleolyl-CoA in intestinal microsomes isolated from intestinal mucosa of cholesterol-fed rabbits; details: Microsome, concentration not given here
T1 sequence (whole entry): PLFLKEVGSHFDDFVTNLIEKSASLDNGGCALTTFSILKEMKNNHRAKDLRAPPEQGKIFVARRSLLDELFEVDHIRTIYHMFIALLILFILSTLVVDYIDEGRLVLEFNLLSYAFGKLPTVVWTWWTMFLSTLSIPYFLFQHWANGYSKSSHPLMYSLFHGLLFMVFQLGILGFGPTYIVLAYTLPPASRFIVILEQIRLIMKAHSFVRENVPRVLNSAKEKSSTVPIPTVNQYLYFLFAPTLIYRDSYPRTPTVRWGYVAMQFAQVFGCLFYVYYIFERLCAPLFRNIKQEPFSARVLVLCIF

Sequence of O-acyltransferase (G1SFD9 1-524): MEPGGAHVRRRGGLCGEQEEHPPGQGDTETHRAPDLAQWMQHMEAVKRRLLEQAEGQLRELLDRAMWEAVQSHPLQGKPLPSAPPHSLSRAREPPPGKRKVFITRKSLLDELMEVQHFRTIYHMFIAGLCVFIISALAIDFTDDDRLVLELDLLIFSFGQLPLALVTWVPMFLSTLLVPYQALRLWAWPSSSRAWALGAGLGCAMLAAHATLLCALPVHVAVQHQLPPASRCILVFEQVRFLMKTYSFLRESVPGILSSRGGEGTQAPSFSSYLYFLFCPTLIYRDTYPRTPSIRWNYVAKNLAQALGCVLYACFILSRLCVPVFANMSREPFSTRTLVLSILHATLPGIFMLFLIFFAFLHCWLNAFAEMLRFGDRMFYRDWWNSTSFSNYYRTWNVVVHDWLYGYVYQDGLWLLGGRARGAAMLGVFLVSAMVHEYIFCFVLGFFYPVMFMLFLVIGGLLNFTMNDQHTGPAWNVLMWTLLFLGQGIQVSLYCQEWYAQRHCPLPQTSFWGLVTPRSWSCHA

Structure (SMILES)	IC50 (O-acyltransferase) [nM]	further results
CCCCCCCCCCCCCCCCCCOC(=O)Nc1c(OC)cc(OC)cc1OC	7100	–
CCCCCCCC/C=C\CCCCCCCCNC(=O)Nc1c(C)cccc1Cl	180	Change (Rattus norvegicus): -42%
CCCCCCCCCCCCCCCCCCNC(=O)NCc1c(OC)cc(OC)cc1OC	> 5000	–
CCCCCCCC/C=C\CCCCCCCCNC(=O)Nc1ccc(F)cc1F	4700	–
CCCCCCCCCCCCCCCCCCSc1c(C)cccc1C	> 10000	–
CCCCCCCCCCCCCCCCCCNC(=O)Nc1c(OC)cc(OC)cc1OC	900	–
CNC(=O)Nc1c(C(C)C)cccc1C(C)C	> 5000	–
CCCCCCCC/C=C\CCCCCCCCNC(=O)Nc1c(CC)cccc1CC	43	Change (Rattus norvegicus): -26%
CCCCCCCC/C=C\CCCCCCCCNC(=O)Nc1ccccc1	> 5000	–
CCCCCCCC/C=C\CCCCCCCCOC(=O)c1c(OC)cc(OC)cc1OC	> 5000	–
CCCCCCCC/C=C\CCCCCCCCNC(=O)Nc1c(Cl)cccc1Cl	400	Change (Rattus norvegicus): -47%
CCCCCCCCCCCCCCCCCC(=O)Nc1c(OC)cc(OC)cc1OC	–	Change (Rattus norvegicus): -11%
CCCCCCCC/C=C\CCCCCCCC(=O)Nc1c(C)cccc1C	–	Change (Rattus norvegicus): -38%
CCCCCCCCCCCCCCNC(=O)Nc1ccc(F)cc1F	340	–
CCCCCCCCCCCCCCCCCCNC(=O)Sc1c(C)cccc1C	2460	–
CCCCCCCCCCC(C)(C)NC(=O)Nc1ccccc1CC	500	–
CCCCCCCC/C=C\CCCCCCCCNC(=O)Nc1c(C(C)C)cccc1C(C)C	28	Change (Rattus norvegicus): -45%
CCCCCCCC/C=C\CCCCCCCCNC(=O)Nc1ccc(Oc2ccccc2)cc1	> 5000	–
CCCCCCCC/C=C\CCCCCCCCNC(=O)Nc1ccc(OC)cc1OC	5400	–
CCCCCCCCCCCCCCNC(=O)Nc1cccc(C(F)(F)F)c1	> 2500	–
CCCCCCCC/C=C/CCCCCCCC(=O)Nc1c(OC)cc(OC)cc1OC	44	Change (Rattus norvegicus): -38%
CCCCCCCC/C=C\CCCCCCCC(=O)c1c(OC)cc(OC)cc1OC	> 50000	–
CCCCCCCCCCCCCCNC(=O)Nc1c(Br)cc(CC)cc1Br	520	–
CCCCCCCCCCCCCCCCCCNC(=O)Nc1c(C(C)C)cccc1C(C)C	48	Change (Rattus norvegicus): -7%
CCCCCCCCCC(C)(C)CNC(=O)Nc1c(C(C)C)cccc1C(C)C	46	–

Structure (SMILES)	IC50 (O-acyltransferase) [nM]	further results
CCCCCCCC/C=C\CCCCCCCCNC(=O)Nc1cc(C)ccc1C	4500	–
CCCCCCCC/C=C\CCCCCCCCNC(=O)Nc1c(Cl)cc(Cl)cc1Cl	1200	–
CCCCCCCCCCCCCCCCCCOc1c(C)cccc1C	> 10000	–
CCCCCCCCCCC(C)(C)CNC(=O)Nc1c(C(C)C)cccc1C(C)C	47	–
CCCCCCCCCCNC(=O)Nc1c(CC)cccc1C(C)C	87	Change (Rattus norvegicus): -61%
CCCCCCCC/C=C\CCCCCCCCNC(=O)Nc1ccccc1CC	980	Change (Rattus norvegicus): -28%
CCCCCCCCCCCCCCCCCCOC(=O)Nc1c(C)cccc1C	> 10000	–
CCCCCCCCCCCCCCNC(=O)Nc1c(C)cccc1Cl	70	Change (Rattus norvegicus): 0%
CCCCCCCC/C=C\CCCCCCCCNCc1c(OC)cc(OC)cc1OC	> 100000	–
CCCCCCCC/C=C\CCCCCCCC/N=C(\S)Nc1c(C)cccc1C	–	Change (Rattus norvegicus): -17%
CCCCCCCCCCCCCCCCS(=O)(=O)Nc1c(OC)cc(OC)cc1OC	690	–
CCCCCCCCCCCCCCCCCCNC(=O)c1c(C)cccc1C	> 10000	–
CCCCCCCC/C=C\CCCCCCCCNC(=O)c1c(OC)cc(OC)cc1OC	9400	–
CCCCCCCCCCCCCCCCCCNC(=O)Oc1c(C)cccc1C	3100	–
CCCCCCCCCCCCCCCCCCSC(=O)Nc1c(OC)cc(OC)cc1OC	5700	–
CCCCNC(=O)Nc1c(C(C)C)cccc1C(C)C	630	–
CCCCCCCC/C=C\CCCCCCCCOC(=O)Nc1c(OC)cc(OC)cc1OC	860	–
CCCCCCCC/C=C\CCCCCCCCNC(=O)Nc1ccccc1OC	3300	–
CCCCCCCCCCCCCCCCCC(=O)Oc1c(C)cccc1C	> 10000	–
CCCCCCCCCCC(C)(C)NC(=O)Nc1c(C(C)C)cccc1C(C)C	45	Change (Rattus norvegicus): -60%
CCCCCCCCCCC(C)(C)NC(=O)Nc1c(CC)cccc1CC	52	Change (Rattus norvegicus): -60%
CCCCCCCC/C=C\CCCCCCCCNC(=O)Nc1c(OC)cc(OC)cc1OC	320	Change [1]: -25%
CCCCCCCCCCNC(=O)Nc1c(C(C)C)cccc1C(C)C	56	Change (Rattus norvegicus): -64%
CCCCCCCCCCCCCCNC(=O)Nc1c(CC)cccc1CC	21	Change (Rattus norvegicus): -38%
CCCCCCCCCCCCCCNC(=O)Nc1c(CC)cccc1C(C)C	18	Change (Rattus norvegicus): -41%

Structure (SMILES)	IC50 (O-acyltransferase) [nM]	further results
CCCCCCCCCCNC(=O)Nc1c(C)cccc1C(C)(C)C	200	–
CCCCCCCC/C=C\CCCCCCC/C(S)=N/c1c(OC)cc(OC)cc1OC	900	Change (Rattus norvegicus): -22%
CCCCCCCC/C=C\CCCCCCCCNC(=O)Nc1c(C)cc(C)cc1C	2900	–
CCCCCCCC/C=C\CCCCCCCC(=O)Oc1c(C)cccc1C	> 10000	–
CCCCCCCCCCCCCCCCCCNC(=O)Nc1c(C)cccc1C	610	–
CCCCCCCC/C=C\CCCCCCCC(=O)NCc1c(OC)cc(OC)cc1OC	6800	–
CCCCCCCCCCCCCCCCCCNC(=O)Nc1c(C)cccc1Cl	1100	–
CCCCCCCCCCCCCCNC(=O)Nc1c(F)cc(F)cc1F	250	–
CCCCCCNC(=O)Nc1c(C(C)C)cccc1C(C)C	99	–
CCCCCCCCCCCCCCCCCCSC(=O)Nc1c(C)cccc1C	> 10000	–
CCCCCCCCCCC1(NC(=O)Nc2c(C(C)C)cccc2C(C)C)CCCC1	46	Change (Rattus norvegicus): -53%
CCCCCCCC/C=C\CCCCCCCCNC(=O)Nc1c(CC)cccc1C(C)C	37	Change (Rattus norvegicus): -41%
CCCCCCCC/C=C\CCCCCCCCNC(=O)c1c(C)cccc1C	9800	–
CCCCCCCCCCCCCCCCC(C)(C)CNC(=O)Nc1c(C(C)C)cccc1C(C)C	73	–
CCCCCCCCCCC1(NC(=O)Nc2c(CC)cccc2CC)CCCC1	110	–
CCCCCCCC/C=C\CCCCCCCC(O)c1c(OC)cc(OC)cc1OC (configuration not stated)	–	inhibition [2]: 6%
CCCCCCCC/C=C\CCCCCCCCNC(=S)Nc1c(C)cccc1C	5400	–
CCCCCCCCCCNC(=O)Nc1c(C)cccc1C(C)C	210	–
CCCCCCCC/C=C\CCCCCCCCNC(=O)Nc1ccc(C)cc1C	> 5000	–
CCCCCCCC/C=C\CCCCCCCCNC(=O)Nc1c(C)cccc1C	160	Change (Rattus norvegicus): -55%
CCCCCCCCCCNC(=O)Nc1c(CC)cccc1CC	100	–
CCCCCCCCCCCCCCCCCC[S+]([O-])c1c(C)cccc1C (configuration not stated)	> 10000	–
CCCCCCCCCCC(CC)(CC)CNC(=O)Nc1c(C(C)C)cccc1C(C)C	50	–
